What was measured:
Rattus norvegicus [1] = assay: Reduction in length (control value = 126+/-9.1) of gastric lesions induced by ethanol was measured, after administration of 2.5 mg/kg po in rats; type: functional, Stomach
Rattus norvegicus [2] = assay: Percent inhibition of gastric lesions induced by ethanol was measured, after administration of 5 mg/kg po in rats; type: functional; conditions: Stomach
Rattus norvegicus [3] = assay: Percent inhibition of gastric lesions induced by ethanol was measured, after administration of 2.5 mg/kg po in rats; type: functional; conditions: Stomach
Rattus norvegicus [4] = assay: Reduction in length ((control value = 126+/-9.1) of gastric lesions induced by ethanol was measured, after administration of 5 mg/kg po in rats; type: functional, Stomach
Rattus norvegicus [5] = assay: Percent inhibition of gastric lesions (length = 126.6+/-16.9) induced by ethanol was measured, after administration of 5 mg/kg po in endomethacin pretreated r rats; type: functional; conditions: Stomach
Rattus norvegicus [6] = assay: Reduction in length (control value = 190.1+/-9.3) of gastric lesions induced by endomethacin was measured, after administration of 5 mg/kg po L-NAME-pretreated in rats; type: functional, Stomach
Rattus norvegicus [7] = assay: Percent inhibition of gastric lesions (length = 34.3+/-5.5) induced by ethanol was measured, after administration of 2.5 mg/kg po in rats; type: functional; conditions: Stomach
Rattus norvegicus [8] = assay: pH of the gastric juice (control value = 1.39+/-0.02) of stomach content of pylorus ligated rats was measured (2.5 mg/kg po of the Compound was administered 1 hr before the pylorus ligation); type: ADME, organism-based; conditions: in vivo
Rattus norvegicus [9] = assay: Reduction in length (control value = 141+/-14.3) of gastric lesions induced by ethanol was measured, after administration of 1.25 mg/kg po in rats; type: functional, Stomach
Rattus norvegicus [10] = assay: Reduction in length (control value = 152.9+/-9.7) of gastric lesions induced by ethanol was measured, after administration of 5 mg/kg po in Indomethacin-pretreated rats; type: functional, Stomach
Rattus norvegicus [11] = assay: Percent inhibition of gastric lesions (length = 92.8+/-8) induced by ethanol was measured, after administration of 2.5 mg/kg po in l-NAME-pretreated rats; type: functional; conditions: Stomach
Rattus norvegicus [12] = assay: Reduction in length (control value = 141+/-14.3) of gastric lesions induced by ethanol was measured, after administration of 5 mg/kg po in rats; type: functional, Stomach
Rattus norvegicus [13] = assay: Reduction in length (control value = 70.4+/-2.3) of gastric lesions induced by endomethacin was measured, after administration of 1.25 mg/kg po in rats; type: functional, Stomach
Rattus norvegicus [14] = assay: Percent inhibition of gastric lesions (length = 50+/-9.9) induced by ethanol was measured, after administration of 5 mg/kg po in l-NAME-pretreated rats; type: functional; conditions: Stomach
Rattus norvegicus [15] = assay: Percent inhibition of gastric lesions induced by endomethacin was measured, after administration of 1.25 mg/kg po in rats; type: functional; conditions: Stomach
Rattus norvegicus [16] = assay: Reduction in length (control value = 70.4+/-2.3) of gastric lesions induced by endomethacin was measured, after administration of 5 mg/kg po in rats; type: functional, Stomach
Rattus norvegicus [17] = assay: Acid output from the stomach (control value = 120.3+/-11.1) in pylorus ligated rats (5 mg/kg po of the Compound was administered 1 hr before the pylorus ligation); type: functional
Rattus norvegicus [18] = assay: Percent inhibition of gastric lesions (length = 139.3+/-11.2) induced by ethanol was measured, after administration of 2.5 mg/kg po in endomethacin pretreated rats; type: functional; conditions: Stomach
Rattus norvegicus [19] = assay: pH of the gastric juice (control value = 1.39+/-0.02) of stomach content of pylorus ligated rats was measured (5 mg/kg po of the Compound was administered 1 hr before the pylorus ligation); type: ADME, organism-based; conditions: in vivo
Rattus norvegicus [20] = assay: Percent inhibition of gastric lesions induced by endomethacin was measured, after administration of 2.5 mg/kg po in rats; type: functional; conditions: Stomach
Rattus norvegicus [21] = assay: Percent inhibition of gastric lesions induced by ethanol was measured, after administration of 1.25 mg/kg po in rats; type: functional; conditions: Stomach
Rattus norvegicus [22] = assay: Acid output from the stomach (control value = 120.3+/-11.1) in pylorus ligated rats (2.5 mg/kg po of the Compound was administered 1 hr before the pylorus ligation); type: functional
Rattus norvegicus [23] = assay: Percent inhibition of gastric lesions (length = 24.9 +/-3.6) induced by ethanol was measured, after administration of 5 mg/kg po in rats; type: functional; conditions: Stomach
Rattus norvegicus [24] = assay: Reduction in length (control value = 206.7+/-6.3) of gastric lesions induced by endomethacin was measured, after administration of 5 mg/kg po NEM-pretreated in rats; type: functional, Stomach
Rattus norvegicus [25] = assay: Reduction in length (control value = 190.1+/-9.3) of gastric lesions induced by endomethacin was measured, after administration of 2.5 mg/kg po L-NAME-pretreated in rats; type: functional, Stomach
Rattus norvegicus [26] = assay: Reduction in length (control value = 70.4+/-2.3) of gastric lesions induced by endomethacin was measured, after administration of 2.5 mg/kg po in rats; type: functional, Stomach
Rattus norvegicus [27] = assay: Reduction in length (control value = 152.9+/-9.7) of gastric lesions induced by ethanol was measured, after administration of 2.5 mg/kg po in Indomethacin-pretreated rats; type: functional, Stomach
Rattus norvegicus [28] = assay: Volume of the gastric juice (control value = 4.7+/-.3) of stomach content of pylorus ligated rats was measured(2.5 mg/kg po of the Compound was administered 1 hr before the pylorus ligation); type: functional
Rattus norvegicus [29] = assay: Percent inhibition of gastric lesions induced by ethanol was measured, after administration of 5 mg/kg po in l-NAME-pretreated rats; type: functional; conditions: Stomach
Rattus norvegicus [30] = assay: Volume of the gastric juice (control value = 4.7+/-.3) of stomach content of pylorus ligated rats was measured (5 mg/kg po of the Compound was administered 1 hr before the pylorus ligation); type: functional
Rattus norvegicus [31] = assay: Reduction in length (control value = 206.7+/-6.3) of gastric lesions induced by endomethacin was measured, after administration of 2.5 mg/kg po NEM-pretreated in rats; type: functional, Stomach
Rattus norvegicus [32] = assay: Percent inhibition of gastric lesions induced by endomethacin was measured, after administration of 5 mg/kg po in rats; type: functional; conditions: Stomach
Rattus norvegicus [33] = assay: Reduction in length (control value = 141+/-14.3) of gastric lesions induced by ethanol was measured, after administration of 2.5 mg/kg po in rats; type: functional, Stomach
Rattus norvegicus [34] = assay: Percent inhibition of gastric lesions (length = 110+/-8.4) induced by ethanol was measured, after administration of 2.5 mg/kg po in NEM-pretreated rats; type: functional; conditions: Stomach

For `C[C@@H](CC[C@@]1(O)O[C@H]2C[C@H]3[C@@H]4CC=C5C[C@@H](O[C@@H]6O[C@H](CO)[C@@H](O)[C@H](O[C@@H]7O[C@H](CO)[C@@H](O)[C@H](O)[C@H]7O)[C@H]6O[C@@H]6O[C@@H](C)[C@H](O)[C@@H](O)[C@H]6O)CC[C@]5(C)[C@H]4CC[C@]3(C)[C@H]2[C@@H]1C)CO[C@@H]1O[C@H](CO)[C@@H](O)[C@H](O)[C@H]1O` [PROTOGRACILLIN], the Length (Rattus norvegicus [1]) was 115 mm, the inhibition in vivo at 5 mg/kg (Rattus norvegicus [2]) was 14.1% and the inhibition in vivo at 2.5 mg/kg (Rattus norvegicus [3]) was 8.5%. The Length (Rattus norvegicus [4]) was 108 mm.
`CC1CC[C@@]2(OC1)OC1C[C@H]3[C@@H]4CC=C5C[C@@H](O[C@@H]6O[C@H](CO)[C@@H](O[C@@H]7O[C@@H](CO)[C@H](O)[C@H]7O)[C@H](O)[C@H]6O[C@@H]6O[C@@H](C)[C@H](O)[C@@H](O)[C@H]6O)CC[C@]5(C)[C@H]4CC[C@]3(C)[C@@]1(O)[C@@H]2C` (stereo partly specified) showed an inhibition in vivo at 5 mg/kg (Rattus norvegicus [5]) of 17.2%, a Length (Rattus norvegicus [6]) of 50 mm and an inhibition in vivo at 2.5 mg/kg (Rattus norvegicus [7]) of 74.8%. It also gave a pH (Rattus norvegicus [8]) of 1.41, a Length (Rattus norvegicus [9]) of 72.6 mm and a Length (Rattus norvegicus [10]) of 127 mm. For the same molecule, the inhibition in vivo at 2.5 mg/kg (Rattus norvegicus [11]) was 51.2%, the Length (Rattus norvegicus [12]) was 8.9 mm and the Length (Rattus norvegicus [13]) was 34.9 mm. For the same molecule, the inhibition in vivo at 5 mg/kg (Rattus norvegicus [14]) was 73.7%, the inhibition in vivo at 1.25 mg/kg (Rattus norvegicus [15]) was 50.4% and the Length (Rattus norvegicus [16]) was 21 mm. The inhibition in vivo at 5 mg/kg (Rattus norvegicus [2]) was 93.7%, the Acid output (Rattus norvegicus [17]) was 71.8 u equiv hr-1 and the inhibition in vivo at 2.5 mg/kg (Rattus norvegicus [18]) was 8.9%. It also gave a pH (Rattus norvegicus [19]) of 1.41, an inhibition in vivo at 2.5 mg/kg (Rattus norvegicus [20]) of 57% and an inhibition in vivo at 1.25 mg/kg (Rattus norvegicus [21]) of 48.5%. The Acid output (Rattus norvegicus [22]) was 98.5 u equiv hr-1, the inhibition in vivo at 5 mg/kg (Rattus norvegicus [23]) was 81.7% and the Length (Rattus norvegicus [24]) was 63 mm. For the same molecule, the inhibition in vivo at 2.5 mg/kg (Rattus norvegicus [3]) was 82.9%, the Length (Rattus norvegicus [25]) was 92.8 mm and the Length (Rattus norvegicus [26]) was 30.3 mm. It also gave a Length (Rattus norvegicus [27]) of 139 mm, a Volume (Rattus norvegicus [28]) of 4.1 ml 4hr-1 and an inhibition in vivo at 5 mg/kg (Rattus norvegicus [29]) of 69.5%. For the same molecule, the Volume (Rattus norvegicus [30]) was 3.3 ml 4hr-1, the Length (Rattus norvegicus [31]) was 110 mm and the inhibition in vivo at 5 mg/kg (Rattus norvegicus [32]) was 70.2%. For the same molecule, the Length (Rattus norvegicus [33]) was 24.1 mm and the inhibition in vivo at 2.5 mg/kg (Rattus norvegicus [34]) was 46.8%.

Source: ChEMBL document CHEMBL1144970, “Protective effects of steroid saponins from Paris polyphylla var. yunnanensis on ethanol- or indomethacin-induced gastric mucosal lesions in rats: structural requirement for activity and mode of action” (Bioorg Med Chem Lett, 2003)
